This passage reports IC50 results from ChEMBL document CHEMBL1128165, “Quinuclidine-based NK1 antagonists, the role of the benzhydryl” (Bioorg Med Chem Lett, 1995).

A word on the IC50: it is the concentration that inhibits the measured activity by half. A low value points to inhibition by little substance.

Structures are written as SMILES.

The target in assay [1] is Substance-P receptor (Homo sapiens, UniProt P25103). Briefly: Binding affinity towards wild type human Wild-type tachykinin receptor 1 expressed in Chinese hamster ovary cells. The assay is classed as cell-based.
Sequence of Substance-P receptor (Homo sapiens, UniProt P25103) (P25103 whole entry): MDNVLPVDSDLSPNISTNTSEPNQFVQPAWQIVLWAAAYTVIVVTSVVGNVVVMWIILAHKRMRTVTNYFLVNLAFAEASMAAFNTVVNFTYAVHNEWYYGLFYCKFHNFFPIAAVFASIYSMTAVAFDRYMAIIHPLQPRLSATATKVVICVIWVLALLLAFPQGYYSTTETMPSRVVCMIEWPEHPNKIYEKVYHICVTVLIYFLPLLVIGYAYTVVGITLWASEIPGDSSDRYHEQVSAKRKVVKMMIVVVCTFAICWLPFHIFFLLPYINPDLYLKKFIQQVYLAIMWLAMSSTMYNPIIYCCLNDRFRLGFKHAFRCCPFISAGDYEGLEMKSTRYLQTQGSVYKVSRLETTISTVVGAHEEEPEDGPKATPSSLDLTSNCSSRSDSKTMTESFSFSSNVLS
Assay [2] addresses Substance-P receptor (Homo sapiens, UniProt P25103, H197A). Put plainly: Binding affinity towards human mutant NK-1 receptor in which His-197 has been replaced by alanine (H197A).

Sequence of Substance-P receptor (Homo sapiens, UniProt P25103, H197A) (P25103 whole entry H197A): as the sequence (P25103 whole entry) above, with H197A counted along it

Turning to `FC(F)(F)c1cc(CO[C@H]2C3CCN(CC3)[C@H]2Cc2ccccc2)cc(C(F)(F)F)c1`, the figures for the IC50 on Substance-P receptor [1] and on Substance-P receptor [2] were 197 nM and 500 nM, respectively.

Regarding `Cc1cc(C)cc(CO[C@H]2C3CCN(CC3)[C@H]2C(c2ccccc2)c2ccccc2)c1` [L-706125], the IC50 on Substance-P receptor [1] was found to be 2 nM; on Substance-P receptor [2] it was 196 nM.

With `FC(F)(F)c1cc(CO[C@H]2C3CCN(CC3)[C@H]2C(c2ccccc2)c2ccccc2)cc(C(F)(F)F)c1` [L-709210], the IC50 at Substance-P receptor [1] worked out at 2 nM; on Substance-P receptor [2] it was 330 nM.

Regarding `Cc1cc(C)cc(CO[C@H]2C3CCN(CC3)[C@H]2Cc2ccccc2)c1`, the IC50 is 292 nM on Substance-P receptor [1] and 845 nM at Substance-P receptor [2].
